# Patent US6306911A, “Substituted amino acids as neutral sphingomyelinase inhibitors” (Ortho-McNeil Pharmaceutical, Inc., priority 2000, dated 2001)
# System: neutral sphingomyelinase
# Experiment: Sphingomyelinase Assay: neutral sphingomyelinase inhibition, release of 14C-phosphocholine from 14C-sphingomyelin, U937 cell lysate
# Type: biochemical
# Details: for percentage of enzyme inhibition: highest concentration tested (100 uM), IC50 not determined, U937 cell lysate, 1 hour at 37; for IC50: U937 cell lysate as enzyme, 14C-sphingomyelin substrate, pH 7.5, 1 hour at 37
# Description: Neutral sphingomyelinase is an enzyme that cleaves sphingomyelin to yield ceramide and phosphocholine. […] After cleavage, an extraction separates the labeled, water-soluble phosphocholine from the intact substrate and the ceramide.
# Cell Iysates are made by nitrogen cavitation of harvested cells in Buffer A (20 mM Tris, pH 7.4, 250 mM sucrose, 10 mM EGTA, 10 ug/ml leupeptin, 1 mM PMSF, […]). Lysates are flash frozen and stored at -40 C.
# Substrate Preparation: N-methyl-^14 C-sphingomyelin (specific activity 50 mCi/mM) and phosphatidylinositol are evaporated under a stream of nitrogen and resuspended at an equimolar concentration of 0.1 mM in water with 0.5% Triton X-100. The solution is vortexed for 30 minutes and then sonicated for 30 minutes.
# Sphingomyelinase Assay: The reaction mixture contains 25 ul 2X Tris Mg buffer (200 mM Tris-HCl, pH 7.5. 160 mM MgCl), 10 ul ^14 C-sphingomyelin substrate, 10 ul lysate (enzyme) and 5 ul test compound or vehicle for a final volume of 50 l. The assays are carried out in 1.5 ml microcentriftige tubes and are incubated for 1 hour at 37. The reaction is stopped with 30 l of water and 175 l chloroform/methanol (2:1, v:v). The tubes arc vortexed vigorously, centrifuged for 5 minutes in a microfuge at maximum speed and 50 l of the upper, aqueous phase is counted in a liquid scintillation counter. Alternatively, the assay may be set up in wells of a 96-well PCR plate in identical proporations to a total volume of 50 l. Then the plates are incubated at 37 C incubator for 1 hour. H2 O (30 l) is added to all plates and the plates are again incubated for 1 hour. Chloroform-methanol (2:1) is added in a volume of 175 l followed by vigorous mixing. The plates are sealed with adhesive covers and centrifuged at 3000 rpm for 10 minutes at 5 C. The plates are uncovered and 50 µl of upper, aqueous phase is transferred to a Flashplate™(NEN) scintillation proximity assay plate. The Flashplates are dried overnight, sealed, and counted using a Topcount scintillation counter.
# Compounds that are antagonists of neutral sphingomyelinase are reported as a positive value for inhibition in Table 4.
IC50 [µM],Compound,percentage of enzyme inhibition [%]
–,C[C@@H](O)[C@@H](C(=O)O)N(C/C=C/c1cccc2ccccc12)C/C=C/c1cccc2ccccc12 [Compound 10],21
–,CC(C(=O)O)N(CCc1cccc2ccccc12)CCc1cccc2ccccc12 (centres unmarked) [Compound 25],< 5
–,O=C(O)C(CO)N(Cc1cccc2ccccc12)Cc1cccc2ccccc12 (centres unmarked) [Compound 21],< 5
–,O=C(O)C(CO)N(CCc1cccc2ccccc12)CCc1cccc2ccccc12 (centres unmarked) [Compound 22],< 5
10,"C[C@@H](C(=O)O)N(CC#Cc1cccc2ccccc12)CC#Cc1cccc2ccccc12 [Compound 17, Alanine, N,N-Bis[3-(1-naphthalenyl)-2-propynyl]--]",–
–,O=C(O)C(CO)N(CC#Cc1cccc2ccccc12)CC#Cc1cccc2ccccc12 (centres unmarked) [Compound 18],< 5
–,CC(C(=O)OC(C)(C)C)N(CC=Cc1ccnc2ccccc12)CC=Cc1ccnc2ccccc12 (centres unmarked) [Compound 24],< 5
–,C[C@@H](C(=O)O)N(C/C=C/c1ccnc2ccccc12)C/C=C/c1ccnc2ccccc12 [Compound 13],< 5
19,COC(=O)[C@H](CO)[N+](C)(C/C=C/c1cccc2ccccc12)C/C=C/c1cccc2ccccc12 [Compound 14],–
28,CC(C(=O)OC(C)(C)C)[N+](C)(CC=Cc1cccc2ccccc12)CC=Cc1cccc2ccccc12 (centres unmarked) [Compound 15],–
–,COc1ccc(C#CCN(CC#Cc2ccc(OC)cc2)[C@@H](C)C(=O)O)cc1 [Compound 19],27
–,CC(C(=O)O)N(Cc1cccc2ccccc12)Cc1cccc2ccccc12 (centres unmarked) [Compound 20],< 5
–,C[N+](C/C=C/c1cccc2ccccc12)(C/C=C/c1cccc2ccccc12)[C@@H](CO)C(=O)O [Compound 16],24
89,O=C(O)C(CO)N(CCCc1cccc2ccccc12)CCCc1cccc2ccccc12 (centres unmarked) [Compound 23],–
